Assay [1] addresses T1, CLK1 (Homo sapiens, UniProt P49759).
T1 construct: purchased Eurofins DiscoverX (contract service)
Briefly: Kinase inhibition assay (Eurofins DiscoverX KinaseProfiler / KdElect), CLK1. The class given is biochemical. As to the method: (§1) The activity of Compounds 1, 3, 4, 6, 7, 8, 9, 10 and 13 in inhibiting CLK1, CLK4, PLK4, and FLT3 kinases was determined. Stock solutions of the compounds being evaluated were prepared. The IC50 values were determined by the Eurofins DiscoverX services using either the KinaseProfiler or the KdElect kinase activity detection assays.

Assay [2] has as its target T2, CLK4 (Homo sapiens, UniProt Q9HAZ1).
T2 construct: purchased Eurofins DiscoverX (contract service)
Description: Kinase inhibition assay (Eurofins DiscoverX KinaseProfiler / KdElect), CLK4. The class given is biochemical. The procedure: as §1

The target in assay [3] is T3, PLK4 (Homo sapiens, UniProt O00444).
T3 construct: purchased Eurofins DiscoverX (contract service)
T3 sequence (O00444 1-970): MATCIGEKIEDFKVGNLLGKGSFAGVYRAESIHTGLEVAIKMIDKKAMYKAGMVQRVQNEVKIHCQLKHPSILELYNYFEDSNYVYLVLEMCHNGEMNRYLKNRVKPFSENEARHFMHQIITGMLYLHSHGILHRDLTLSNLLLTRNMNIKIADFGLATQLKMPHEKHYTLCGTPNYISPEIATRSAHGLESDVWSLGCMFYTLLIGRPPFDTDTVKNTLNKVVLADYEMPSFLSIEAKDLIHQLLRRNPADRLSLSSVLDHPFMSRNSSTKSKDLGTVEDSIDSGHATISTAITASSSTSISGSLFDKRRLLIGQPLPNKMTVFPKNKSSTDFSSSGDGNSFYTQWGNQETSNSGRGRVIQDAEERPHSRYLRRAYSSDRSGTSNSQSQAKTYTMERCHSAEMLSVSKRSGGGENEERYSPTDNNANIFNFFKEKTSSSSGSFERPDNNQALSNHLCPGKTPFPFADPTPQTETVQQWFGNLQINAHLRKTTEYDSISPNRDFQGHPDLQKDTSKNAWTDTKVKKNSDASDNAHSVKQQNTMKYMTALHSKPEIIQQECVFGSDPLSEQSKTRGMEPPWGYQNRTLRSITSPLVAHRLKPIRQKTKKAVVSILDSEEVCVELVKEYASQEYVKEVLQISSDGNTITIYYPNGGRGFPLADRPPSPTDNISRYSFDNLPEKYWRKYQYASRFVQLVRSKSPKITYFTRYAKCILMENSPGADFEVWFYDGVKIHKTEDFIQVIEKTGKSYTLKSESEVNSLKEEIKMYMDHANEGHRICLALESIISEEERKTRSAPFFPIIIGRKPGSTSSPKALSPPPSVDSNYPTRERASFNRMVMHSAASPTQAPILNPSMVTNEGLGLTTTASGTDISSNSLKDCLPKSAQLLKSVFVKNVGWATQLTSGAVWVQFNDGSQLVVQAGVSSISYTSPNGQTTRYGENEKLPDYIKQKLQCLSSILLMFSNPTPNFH
Description: Kinase inhibition assay (Eurofins DiscoverX KinaseProfiler / KdElect), PLK4. In kind it is biochemical. The procedure:
as §1

In assay [4] the target is T4, FLT3 (Homo sapiens, UniProt P36888).
T4 construct: purchased Eurofins DiscoverX (contract service)
T4 sequence (P36888 27-993): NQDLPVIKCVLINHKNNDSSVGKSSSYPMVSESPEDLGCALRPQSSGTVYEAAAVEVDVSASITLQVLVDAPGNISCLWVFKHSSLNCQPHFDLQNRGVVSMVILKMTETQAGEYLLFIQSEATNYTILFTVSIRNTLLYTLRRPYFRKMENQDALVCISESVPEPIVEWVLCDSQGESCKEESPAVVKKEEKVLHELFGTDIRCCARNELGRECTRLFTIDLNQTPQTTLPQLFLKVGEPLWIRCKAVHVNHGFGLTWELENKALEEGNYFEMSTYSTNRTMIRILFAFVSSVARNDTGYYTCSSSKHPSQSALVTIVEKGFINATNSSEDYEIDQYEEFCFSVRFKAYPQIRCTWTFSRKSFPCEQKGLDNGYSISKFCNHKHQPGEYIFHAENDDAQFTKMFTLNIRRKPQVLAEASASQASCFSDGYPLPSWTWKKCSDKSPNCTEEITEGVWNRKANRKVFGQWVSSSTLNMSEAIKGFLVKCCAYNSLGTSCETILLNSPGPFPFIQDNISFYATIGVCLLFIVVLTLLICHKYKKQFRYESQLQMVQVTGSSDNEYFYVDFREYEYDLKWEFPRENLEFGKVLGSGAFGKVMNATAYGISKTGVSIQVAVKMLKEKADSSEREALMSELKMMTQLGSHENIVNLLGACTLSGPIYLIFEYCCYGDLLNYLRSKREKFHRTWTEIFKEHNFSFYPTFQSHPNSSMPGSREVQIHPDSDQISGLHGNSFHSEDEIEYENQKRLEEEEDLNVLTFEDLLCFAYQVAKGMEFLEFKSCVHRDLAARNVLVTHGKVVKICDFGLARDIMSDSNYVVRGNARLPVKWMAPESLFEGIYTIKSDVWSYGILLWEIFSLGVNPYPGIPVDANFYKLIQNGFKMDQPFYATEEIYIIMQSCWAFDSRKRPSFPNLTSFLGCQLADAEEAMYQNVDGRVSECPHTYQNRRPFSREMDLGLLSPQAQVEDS
Description: Kinase assay (Eurofins DiscoverX KinaseProfiler / KdElect), FLT3. In kind it is binding. The conditions noted are these: read-out: FLT3 (Kd50 nM). The procedure:
Stock solutions of the compounds being evaluated were prepared. The IC50 values were determined by the Eurofins DiscoverX services using either the KinaseProfiler or the KdElect kinase activity detection assays.

For assay [5], the system named is HCT-116. Briefly: Cancer cytotoxicity assay (Real-Time-Glo cell viability), HCT-116. In kind it is cell-based. Particulars: Homo sapiens, colorectal cancer cell line, 72 hr. The procedure: (§2) The cytotoxicity of Compounds 1, 3, 4, 6, 7, 8, 9, 10, 12 and 13 against cancer cell lines was determined. To determine the optimal plating density for cell viability assays, for each cell line, cells were counted and diluted to final densities of 2.5, 5, 10 and 20 thousand per 100 μL of their respective growth media per well in 96 well plates. The Promega Real-Time-Glo cell viability kit was used to determine the optimal concentration for cell plating so that each cell line would be within the linear part of its growth curve after 72 hrs in culture. For the determination of test compound IC50s, different cancer cell lines were plated in 96 well plates in the pre-determined optimal density for each cell line. Test compounds were then added at different concentrations for the creation of six-point curve and cell density was determined using the Promega Real-Time-Glo cell viability kit after 24, 48, and 72 hrs in culture.

Assay [6] concerns HT-29. Description: Cancer cytotoxicity assay (Real-Time-Glo cell viability), HT-29. The class given is cell-based. Particulars: Homo sapiens, colorectal cancer cell line, 72 hr. The procedure:
as §2

For assay [7], the system named is A-498. Briefly: Cancer cytotoxicity assay (Real-Time-Glo cell viability), A-498. Particulars: Homo sapiens, A498; kidney cancer, 72 hr. In kind it is cell-based. The procedure:
as §2

For assay [8], the system named is 786-O. Briefly: Cancer cytotoxicity assay (Real-Time-Glo cell viability), 786-O. Particulars: Homo sapiens, 786-0; kidney cancer, 72 hr. The class given is cell-based. The procedure:
as §2

For assay [9], the system named is SKOV-3. Briefly: Cancer cytotoxicity assay (Real-Time-Glo cell viability), SKOV-3. The class given is cell-based. The conditions noted are these: Homo sapiens, SK-OV-3; ovarian cancer cell line, 72 hr. The procedure: as §2
For assay [10], the system named is OV-90. Description: Cancer cytotoxicity assay (Real-Time-Glo cell viability), OV-90. The class given is cell-based. The conditions noted are these: Homo sapiens, ovarian cancer cell line, 72 hr. As to the method: as §2
Assay [11] relates to Kasumi-1. Briefly: Cancer cytotoxicity assay (Real-Time-Glo cell viability), Kasumi-1. In kind it is cell-based. Particulars: Homo sapiens, leukemia cell, 72 hr. As to the method: as §2
Assay [12] concerns Kasumi-3. Description: Cancer cytotoxicity assay (Real-Time-Glo cell viability), Kasumi-3. In kind it is cell-based. Particulars: leukemia cell, 72 hr. As to the method:
as §2

The test system of assay [13] is MV4-11. Description: Cancer cytotoxicity assay (Real-Time-Glo cell viability), MV4-11. In kind it is cell-based. The conditions noted are these: Homo sapiens, leukemia cell, 72 hr. The procedure: as §2

T2 sequence (Q9HAZ1 whole entry): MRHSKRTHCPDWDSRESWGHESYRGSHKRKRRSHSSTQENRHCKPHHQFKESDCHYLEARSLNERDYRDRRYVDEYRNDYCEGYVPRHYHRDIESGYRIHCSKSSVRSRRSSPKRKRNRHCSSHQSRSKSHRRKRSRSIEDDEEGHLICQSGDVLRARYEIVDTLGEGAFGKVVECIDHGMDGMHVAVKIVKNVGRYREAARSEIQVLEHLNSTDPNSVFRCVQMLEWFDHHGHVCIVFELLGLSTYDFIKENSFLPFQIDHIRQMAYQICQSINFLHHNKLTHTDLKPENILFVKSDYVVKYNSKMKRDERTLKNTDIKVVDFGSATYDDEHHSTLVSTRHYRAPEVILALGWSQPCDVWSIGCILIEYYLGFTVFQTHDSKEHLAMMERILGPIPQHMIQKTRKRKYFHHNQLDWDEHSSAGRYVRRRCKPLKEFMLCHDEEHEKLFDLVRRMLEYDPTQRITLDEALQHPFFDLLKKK
T1 sequence (P49759 whole entry): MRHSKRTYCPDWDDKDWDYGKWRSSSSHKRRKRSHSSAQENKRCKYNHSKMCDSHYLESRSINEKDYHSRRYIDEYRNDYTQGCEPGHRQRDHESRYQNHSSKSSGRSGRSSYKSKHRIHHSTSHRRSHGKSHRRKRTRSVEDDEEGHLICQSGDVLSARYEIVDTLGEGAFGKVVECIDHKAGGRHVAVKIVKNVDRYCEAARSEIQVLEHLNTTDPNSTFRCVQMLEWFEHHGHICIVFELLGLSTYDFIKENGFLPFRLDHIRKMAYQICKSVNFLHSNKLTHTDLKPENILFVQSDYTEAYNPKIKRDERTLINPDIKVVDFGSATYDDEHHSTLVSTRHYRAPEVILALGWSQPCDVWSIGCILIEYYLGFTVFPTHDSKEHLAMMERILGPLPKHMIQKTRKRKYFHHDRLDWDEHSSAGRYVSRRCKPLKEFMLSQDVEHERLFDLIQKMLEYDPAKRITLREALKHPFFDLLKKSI

Turning to `COc1cc2c(Nc3ncc(C)s3)nc(N3CCC(F)(F)CC3)nc2cc1OCCCN1CCCC1` [Compound 9, N-(2-(4,4-difluoropiperidin-1-yl)-6-methoxy-7-(3-(pyrrolidin-1-yl)propoxy)quinazolin-4-yl)-5-methylthiazol-2-amine], the IC50 in assay [1] is less than 1000 nM; in [2] it was less than 1000 nM; in assay [3], greater than 10000 nM; in assay [5], 5000 to 10000 nM; in assay [6] it was greater than 10000 nM; in assay [7], 1000 to 5000 nM. Moreover, the IC50 in assay [8] is 1000 to 5000 nM; in assay [9], 1000 to 5000 nM; in assay [10] it was 5000 to 10000 nM; in [11], 1000 to 5000 nM; in assay [12], 1000 to 5000 nM; in assay [13], 1000 to 5000 nM. In addition, the Kd in assay [4] is greater than 10 µM.

With `COc1cc2c(Nc3nnc(C)s3)nc(N3CCC(F)(F)CC3)nc2cc1OCCCN1CCCC1` [Compound 12, N-(2-(4,4-difluoropiperidin-1-yl)-6-methoxy-7-(3-(pyrrolidin-1-yl)propoxy)quinazolin-4-yl)-5-methyl-1,3,4-thiadiazol-2-amine], the IC50 in assay [5] lay within 1000 to 5000 nM; in assay [6], 1000 to 5000 nM; in assay [7], 1000 to 5000 nM; in assay [8] it was 5000 to 10000 nM; in [9] it was 1000 to 5000 nM; in [10], 1000 to 5000 nM. Besides, the IC50 in assay [11], in assay [12] and in assay [13] was 1000 to 5000 nM in each case.

As for `COc1cc2c(Nc3cc(C4CC4)[nH]n3)nc(N3CCC(F)(F)CC3)nc2cc1OCCCN1CCCC1` [Compound 6, N-(5-cyclopropyl-1H-pyrazol-3-yl)-2-(4,4-difluoropiperidin-1-yl)-6-methoxy-7-(3-(pyrrolidin-1-yl)propoxy)quinazolin-4-amine], the concentration for half-maximal inhibition (IC50) is less than 1000 nM in [1]; less than 1000 nM in assay [2]; less than 1000 nM in assay [3]; 1000 to 5000 nM in [5]; 1000 to 5000 nM in assay [6]; 1000 to 5000 nM in assay [7]. Further, the IC50 in assay [8] was 1000 to 5000 nM; in assay [9], 1000 to 5000 nM; in [10], 1000 to 5000 nM; in assay [11], 1000 to 5000 nM; in assay [12] it was 1000 to 5000 nM; in assay [13] it was less than 1000 nM.

In the case of `COc1cc2c(Nc3cc(C(C)C)[nH]n3)nc(N3CCC(F)(F)CC3)nc2cc1OCCCN1CCCC1` [Compound 13, 2-(4,4-difluoropiperidin-1-yl)-N-(5-isopropyl-1H-pyrazol-3-yl)-6-methoxy-7-(3-(pyrrolidin-1-yl)propoxy)quinazolin-4-amine], the concentration for half-maximal inhibition (IC50) in assay [1] was less than 1000 nM; in assay [2], less than 1000 nM; in assay [3], greater than 10000 nM; in [5] it was 1000 to 5000 nM; in [6], 1000 to 5000 nM; in assay [7], 1000 to 5000 nM. In addition, the IC50 in assay [8] was 1000 to 5000 nM; in assay [9], 1000 to 5000 nM; in assay [10], 1000 to 5000 nM; in assay [11] it was 1000 to 5000 nM; in [12] it was 1000 to 5000 nM; in assay [13], less than 1000 nM. Further, the Kd in assay [4] was in the range of 1 to 5 µM.

As to `COc1cc2c(Nc3cc(C(C)(C)C)[nH]n3)nc(N3CCC(F)(F)CC3)nc2cc1OCCCN1CCCC1` [Compound 7, N-(5-(tert-butyl)-1H-pyrazol-3-yl)-2-(4,4-difluoropiperidin-1-yl)-6-methoxy-7-(3-(pyrrolidin-1-yl)propoxy)quinazolin-4-amine], the IC50 is less than 1000 nM in [1]; less than 1000 nM in [2]; greater than 10000 nM in [3]; 1000 to 5000 nM in assay [5]; 1000 to 5000 nM in [6]; 1000 to 5000 nM in assay [7]. Further, the IC50 in assay [8], in assay [9], in assay [10], in assay [11], in assay [12] and in [13] was 1000 to 5000 nM each time. In addition, the Kd in assay [4] is greater than 10 µM.

In the case of `COc1cc2c(Nc3cc(C)[nH]n3)nc(N3CCC(F)(F)CC3)nc2cc1OCCCN1CCCC1` [Compound 3, 2-(4,4-difluoropiperidin-1-yl)-6-methoxy-N-(5-methyl-1H-pyrazol-3-yl)-7-(3-(pyrrolidin-1-yl)propoxy)quinazolin-4-amine], the IC50 is less than 1000 nM in assay [1]; less than 1000 nM in [2]; less than 1000 nM in [3]; 1000 to 5000 nM in [5]; 5000 to 10000 nM in [6]; 5000 to 10000 nM in [7]. Besides, the IC50 in assay [8] is 5000 to 10000 nM; in assay [9], 1000 to 5000 nM; in [10] it was 1000 to 5000 nM; in assay [11], greater than 10000 nM; in [12], 5000 to 10000 nM; in assay [13] it was 1000 to 5000 nM. The Kd in assay [4] was 1 to 5 µM.

As for `COc1cc2c(Nc3cc(C4CCC4)[nH]n3)nc(N3CCC(F)(F)CC3)nc2cc1OCCCN1CCCC1` [Compound 10, N-(5-cyclobutyl-1H-pyrazol-3-yl)-2-(4,4-difluoropiperidin-1-yl)-6-methoxy-7-(3-(pyrrolidin-1-yl)propoxy)quinazolin-4-amine], the IC50 in [1] is less than 1000 nM; in assay [2], less than 1000 nM; in assay [3], 1000 to 5000 nM; in assay [5], 1000 to 5000 nM; in assay [6], 1000 to 5000 nM; in assay [7], 1000 to 5000 nM. Besides, the IC50 was 1000 to 5000 nM in assay [8]; 1000 to 5000 nM in assay [9]; 1000 to 5000 nM in assay [10]; less than 1000 nM in [11]; less than 1000 nM in assay [12]; less than 1000 nM in assay [13].

In general, IC50 refers to the midpoint of a concentration-inhibition curve. A low value points to greater potency.
